Assay results published in US10316017B2, “COT modulators and methods of use thereof” (Gilead Sciences, Inc., priority 2015, dated 2019).

What was measured:
[1] = test system: TNFα production in LPS-stimulated human monocytes; test: Cot Monocyte TNFα Cell Based Assay; conditions: Homo sapiens, Monocyte, TNFα in LPS-stimulated human monocytes; read-out: EC50 TNF
Summary of the method: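 Cells at 5,000/well were pretreated with compound for 1 h at 37 °C (0.5% DMSO final), then stimulated with 50 pg/ml LPS for 4 h at 37 °C. Supernatant TNFα was measured by two-antibody TR-FRET after overnight room-temperature incubation; values are percent of control between unstimulated and stimulated wells.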

[2] = biological target: T1, human Cot catalytic domain (30-397 amino acids) (Homo sapiens, UniProt P41279); test: High Throughput Cot Biochemical Assay (KinEASE TR-FRET); conditions: Cot biochemical HTRF (KinEASE TR-FRET) assay; read-out: IC50 HTRF
T1 construct: Purified recombinant human Cot catalytic domain (30-397 amino acids) was purchased from Cama Biosciences; purchased Cama Biosciences (so in the source)
T1 sequence (P41279 30-397): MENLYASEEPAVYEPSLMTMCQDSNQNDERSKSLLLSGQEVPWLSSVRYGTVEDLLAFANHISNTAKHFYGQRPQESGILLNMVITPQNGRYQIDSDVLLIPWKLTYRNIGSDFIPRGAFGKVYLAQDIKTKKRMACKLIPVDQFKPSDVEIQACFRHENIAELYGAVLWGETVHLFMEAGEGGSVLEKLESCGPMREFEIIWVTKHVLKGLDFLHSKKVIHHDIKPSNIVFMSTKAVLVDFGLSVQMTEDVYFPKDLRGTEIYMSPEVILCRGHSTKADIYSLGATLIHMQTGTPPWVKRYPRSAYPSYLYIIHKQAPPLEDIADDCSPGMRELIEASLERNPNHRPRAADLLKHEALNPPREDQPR
Summary of the method: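 Reaction of 5 nM recombinant human Cot catalytic domain (aa 30-397) with 1 μM STK3 peptide (XL665-labeled) and 400 μM ATP in 10 mM MOPS pH 7.0, 10 mM MgOAc, 1 mM DTT, 0.5 mg/mL BSA, 0.1% DMSO. Phosphopeptide detected by TR-FRET with europium anti-phospho antibody.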

Row | Structure (SMILES) | EC50 [1] [nM] | IC50 [2] [nM]
1 | COc1ccc(Nc2c(C#N)cnc3c(Cl)cc(N[C@@H](c4ccccc4)c4cn(C(C)(C)C)nn4)cc23)cn1 [Example 468, (S)-6-(((1-(tert-butyl)-1H-1,2,3-triazol-4-yl)(phenyl)methyl)amino)-8-chloro-4-((6-methoxypyridin-3-yl)amino)quinoline-3-carbonitrile] | 3150 | 173
2 | CC(C)(C)N1CCC(n2cc([C@@H](Nc3cc(Cl)c4ncc(C#N)c(Nc5ccc(F)cc5C#N)c4c3)c3ccccc3)nn2)CC1 [Example 471, (S)-6-(((1-(1-(tert-butyl)piperidin-4-yl)-1H-1,2,3-triazol-4-yl)(phenyl)methyl)amino)-8-chloro-4-((2-cyano-4-fluorophenyl)amino) quinoline-3-carbonitrile] | 8640 | 333
3 | N#Cc1cnc2c(Cl)cc(N[C@@H](c3ccccc3)c3cn(CCCN4CCCC4)nn3)cc2c1Nc1c(F)cc(F)cc1F [Example 472, (S)-8-chloro-6-((phenyl(1-(3-(pyrrolidin-1-yl)propyl)-1H-1,2,3-triazol-4-yl)methyl)amino)-4-((2,4,6-trifluorophenyl)amino) quinoline-3-carbonitrile] | 2360 | 96
4 | Cn1cc(CNc2c(C#N)cnc3c(Cl)cc(N[C@@H](c4ccccc4)c4cn(C5CCN(C(C)(C)C)CC5)nn4)cc23)cn1 [Example 475, (S)-6-(((1-(1-(tert-butyl)piperidin-4-yl)-1H-1,2,3-triazol-4-yl)(phenyl)methyl)amino)-8-chloro-4-(((1-methyl-1H-pyrazol-4-yl)methyl)amino)quinoline-3-carbonitrile] | > 10000 | 459
5 | Cn1ccc(CNc2c(C#N)cnc3c(Cl)cc(N[C@@H](c4ccccc4)c4cn(C5CCN(C(C)(C)C)CC5)nn4)cc23)n1 [Example 476, (S)-6-(((1-(1-(tert-butyl)piperidin-4-yl)-1H-1,2,3-triazol-4-yl)(phenyl)methyl)amino)-8-chloro-4-(((1-methyl-1H-pyrazol-3-yl)methyl)amino)quinoline-3-carbonitrile] | > 10000 | 1740
6 | Cn1nccc1CNc1c(C#N)cnc2c(Cl)cc(N[C@@H](c3ccccc3)c3cn(C4CCN(C(C)(C)C)CC4)nn3)cc12 [Example 477, (S)-6-(((1-(1-(tert-butyl)piperidin-4-yl)-1H-1,2,3-triazol-4-yl)(phenyl)methyl)amino)-8-chloro-4-(((1-methyl-1H-pyrazol-5-yl)methyl)amino)quinoline-3-carbonitrile] | 6650 | 243
7 | Cn1cc(Nc2c(C#N)cnc3c(Cl)cc(N[C@@H](c4ccccc4)c4cn(C5CCN(C(C)(C)C)CC5)nn4)cc23)cn1 [Example 478, (S)-6-(((1-(1-(tert-butyl)piperidin-4-yl)-1H-1,2,3-triazol-4-yl)(phenyl)methyl)amino)-8-chloro-4-((1-methyl-1H-pyrazol-4-yl)amino)quinoline-3-carbonitrile] | 5530 | 1050
8 | CC(C)(C)N1CCC(n2cc([C@@H](Nc3cc(Cl)c4ncc(C#N)c(Nc5cccc6[nH]c(=O)[nH]c56)c4c3)c3ccccc3)nn2)CC1 [Example 479, (S)-6-(((1-(1-(tert-butyl)piperidin-4-yl)-1H-1,2,3-triazol-4-yl)(phenyl)methyl)amino)-8-chloro-4-((2-oxo-2,3-dihydro-1H-benzo[d]imidazol-4-yl)amino) quinoline-3-carbonitrile] | > 10000 | 5280
9 | COc1ncccc1Nc1c(C#N)cnc2c(Cl)cc(N[C@@H](c3ccccc3)c3cn(C4CCN(C(C)(C)C)CC4)nn3)cc12 [Example 480, (S)-6-(((1-(1-(tert-butyl)piperidin-4-yl)-1H-1,2,3-triazol-4-yl)(phenyl)methyl)amino)-8-chloro-4-((2-methoxypyridin-3-yl)amino)quinoline-3-carbonitrile] | 8510 | 1220
10 | CC[C@@H](Nc1c(C#N)cnc2c(Cl)cc(N(CC)[C@@H](c3ccccc3)c3c[nH]nn3)cc12)c1ccccc1 [Example 481, 8-chloro-6-(ethyl((S)-phenyl(1H-1,2,3-triazol-4-yl)methyl)amino)-4-(((R)-1-phenylpropyl)amino) quinoline-3-carbonitrile] | 8800 | 298
11 | Cn1cc(Nc2c(C#N)cnc3c(Cl)cc(N[C@@H](c4ccccc4)c4c[nH]nn4)cc23)ccc1=O [Example 482, (S)-8-chloro-4-((1-methyl-6-oxo-1,6-dihydropyridin-3-yl)amino)-6-((phenyl (1H-1,2,3-triazol-4-yl)methyl)amino)quinoline-3-carbonitrile] | > 10000 | 332
12 | Cn1cc(Nc2c(C#N)cnc3c(Cl)cc(N[C@@H](c4ccccc4)c4cn(C5COC5)nn4)cc23)ccc1=O [Example 483, (S)-8-chloro-4-((1-methyl-6-oxo-1,6-dihydropyridin-3-yl)amino)-6-(((1-(oxetan-3-yl)-1H-1,2,3-triazol-4-yl)(phenyl)methyl)amino) quinoline-3-carbonitrile] | > 10000 | 387
13 | Cn1cc(Nc2c(C#N)cnc3c(Cl)cc(N[C@@H](c4ccccc4)c4cn(C5CCN(C(C)(C)C)CC5)nn4)cc23)ccc1=O [Example 484, (S)-6-(((1-(1-(tert-butyl)piperidin-4-yl)-1H-1,2,3-triazol-4-yl)(phenyl)methyl)amino)-8-chloro-4-((1-methyl-6-oxo-1,6-dihydropyridin-3-yl)amino)quinoline-3-carbonitrile] | > 10000 | 371
14 | C[C@@H](Nc1c(C#N)cnc2c(Cl)cc(N[C@@H](c3ccccc3)c3cn(C4CCN(C(C)(C)C)CC4)nn3)cc12)C(C)(C)C [Example 485, 6-(((S)-(1-(1-(tert-butyl)piperidin-4-yl)-1H-1,2,3-triazol-4-yl)(phenyl)methyl)amino)-8-chloro-4-(((R)-3,3-dimethylbutan-2-yl)amino) quinoline-3-carbonitrile] | 7240 | 306

The next molecules have a lower EC50 [1] than those just listed; values first:

Row | EC50 [1] [nM] | IC50 [2] [nM] | Structure (SMILES)
15 | 694 | 61 | N#Cc1ccc([C@H](Nc2cc(Cl)c3ncc(C#N)c(Nc4ccc(Cl)c(Cl)c4F)c3c2)c2c[nH]nn2)cc1 [Example 464, (S)-8-chloro-6-(((4-cyanophenyl)(1H-1,2,3-triazol-4-yl)methyl)amino)-4-((3,4-dichloro-2-fluorophenyl)amino) quinoline-3-carbonitrile]
16 | 821 | 41 | N#Cc1cccc([C@H](Nc2cc(Cl)c3ncc(C#N)c(Nc4ccc(Cl)c(Cl)c4F)c3c2)c2c[nH]nn2)c1 [Example 465, (S)-8-chloro-6-(((3-cyanophenyl)(1H-1,2,3-triazol-4-yl)methyl)amino)-4-((3,4-dichloro-2-fluorophenyl)amino) quinoline-3-carbonitrile]
17 | 1400 | 53 | N#Cc1cccc([C@H](Nc2cc(Cl)c3ncc(C#N)c(Nc4ccc(Cl)c(Cl)c4F)c3c2)c2cn(C3COC3)nn2)c1 [Example 466, (S)-8-chloro-6-(((3-cyanophenyl)(1-(oxetan-3-yl)-1H-1,2,3-triazol-4-yl)methyl)amino)-4-((3,4-dichloro-2-fluorophenyl)amino) quinoline-3-carbonitrile]
18 | 978 | 13 | N#Cc1cnc2c(Cl)cc(N[C@H](c3cn(C4COC4)nn3)c3ccc(F)cc3F)cc2c1Nc1cnc(F)c(F)c1 [Example 467, (S)-8-chloro-6-(((2,4-difluorophenyl)(1-(oxetan-3-yl)-1H-1,2,3-triazol-4-yl)methyl)amino)-4-((5,6-difluoropyridin-3-yl)amino)quinoline-3-carbonitrile]
19 | 315 | 14 | N#Cc1cnc2c(Cl)cc(N[C@@H](c3ccccc3)c3cn(CCCN4CCCC4)nn3)cc2c1Nc1ccc(F)c(C#N)c1F [Example 469, (S)-8-chloro-4-((3-cyano-2,4-difluorophenyl)amino)-6-((phenyl(1-(3-(pyrrolidin-1-yl)propyl)-1H-1,2,3-triazol-4-yl)methyl)amino)quinoline-3-carbonitrile]
20 | 608 | 13 | CC(C)(C)N1CCC(n2cc([C@@H](Nc3cc(Cl)c4ncc(C#N)c(Nc5ccc(F)c(C#N)c5F)c4c3)c3ccccc3)nn2)CC1 [Example 470, (S)-6-(((1-(1-(tert-butyl)piperidin-4-yl)-1H-1,2,3-triazol-4-yl)(phenyl)methyl)amino)-8-chloro-4-((3-cyano-2,4-difluorophenyl)amino) quinoline-3-carbonitrile]
21 | 784 | 59 | CC(C)(C)N1CCC(n2cc([C@@H](Nc3cc(Cl)c4ncc(C#N)c(Nc5c(F)cc(F)cc5F)c4c3)c3ccccc3)nn2)CC1 [Example 473, (S)-6-(((1-(1-(tert-butyl)piperidin-4-yl)-1H-1,2,3-triazol-4-yl)(phenyl)methyl)amino)-8-chloro-4-((2,4,6-trifluorophenyl)amino) quinoline-3-carbonitrile]
22 | 1570 | 68 | CC(C)(C)CCNc1c(C#N)cnc2c(Cl)cc(N[C@@H](c3ccccc3)c3cn(C4CCN(C(C)(C)C)CC4)nn3)cc12 [Example 474, (S)-6-(((1-(1-(tert-butyl)piperidin-4-yl)-1H-1,2,3-triazol-4 yl)(phenyl)methyl)amino)-8-chloro-4-((3,3-dimethylbutyl)amino) quinoline-3-carbonitrile]
